Measured values: publication PMC8401933 (Molecules, 2021)
“Also recorded” adds a separate entry of the source.

Experiments:
[1] = molecular target: T1, RPS6KA5(Kin.Dom.2-C-terminal) (Homo sapiens, UniProt O75582); test: KINOMEscan binding; settings: read-out: Percent Control
T1 construct: RPS6KA5(Kin.Dom.2-C-terminal); purchased Eurofins DiscoverX KINOMEscan

PRKX = molecular target: T2, PRKX (Homo sapiens, UniProt P51817); test: KINOMEscan binding; settings: read-out: Percent Control
T2 construct: purchased Eurofins DiscoverX KINOMEscan
T2 sequence (P51817 whole entry): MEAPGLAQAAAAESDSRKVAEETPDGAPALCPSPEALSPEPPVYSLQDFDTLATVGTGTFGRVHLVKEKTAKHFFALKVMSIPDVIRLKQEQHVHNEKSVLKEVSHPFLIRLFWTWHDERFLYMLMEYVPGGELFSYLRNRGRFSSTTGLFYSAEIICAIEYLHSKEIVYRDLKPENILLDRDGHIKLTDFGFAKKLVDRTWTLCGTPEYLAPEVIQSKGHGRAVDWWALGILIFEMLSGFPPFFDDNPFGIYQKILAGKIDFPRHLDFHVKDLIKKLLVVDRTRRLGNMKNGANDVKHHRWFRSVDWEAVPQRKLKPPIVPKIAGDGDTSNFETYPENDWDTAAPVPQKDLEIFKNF

FLT3(R834Q) = molecular target: T3, FLT3(R834Q) (Homo sapiens, UniProt P36888, R834Q); test: KINOMEscan binding; settings: read-out: Percent Control
T3 construct: purchased Eurofins DiscoverX KINOMEscan

EPHA7 = molecular target: T4, EPHA7 (Homo sapiens, UniProt Q15375); test: KINOMEscan binding; settings: read-out: Percent Control
T4 construct: purchased Eurofins DiscoverX KINOMEscan

PRP4 = molecular target: T5, PRP4 (Homo sapiens, UniProt Q13523); test: KINOMEscan binding; settings: read-out: Percent Control
T5 construct: purchased Eurofins DiscoverX KINOMEscan
Protocol: (§1) This platform contains 468 recombinant human kinases (more than 80% coverage) in which 56 disease-relevant mutants are included. The recombinant DNA-tagged kinases were incubated with the probe ligands immobilized to a solid support, and then the level of the captured kinases on the solid support was measured using quantitative PCR.

CDC2L5 = molecular target: T6, CDC2L5 (Homo sapiens, UniProt Q14004); test: KINOMEscan binding; settings: read-out: Percent Control
T6 construct: purchased Eurofins DiscoverX KINOMEscan
Protocol: as §1

AKT2 = molecular target: T7, AKT2 (Homo sapiens, UniProt P31751); test: KINOMEscan binding; settings: read-out: Percent Control
T7 construct: purchased Eurofins DiscoverX KINOMEscan
T7 sequence (P31751 whole entry): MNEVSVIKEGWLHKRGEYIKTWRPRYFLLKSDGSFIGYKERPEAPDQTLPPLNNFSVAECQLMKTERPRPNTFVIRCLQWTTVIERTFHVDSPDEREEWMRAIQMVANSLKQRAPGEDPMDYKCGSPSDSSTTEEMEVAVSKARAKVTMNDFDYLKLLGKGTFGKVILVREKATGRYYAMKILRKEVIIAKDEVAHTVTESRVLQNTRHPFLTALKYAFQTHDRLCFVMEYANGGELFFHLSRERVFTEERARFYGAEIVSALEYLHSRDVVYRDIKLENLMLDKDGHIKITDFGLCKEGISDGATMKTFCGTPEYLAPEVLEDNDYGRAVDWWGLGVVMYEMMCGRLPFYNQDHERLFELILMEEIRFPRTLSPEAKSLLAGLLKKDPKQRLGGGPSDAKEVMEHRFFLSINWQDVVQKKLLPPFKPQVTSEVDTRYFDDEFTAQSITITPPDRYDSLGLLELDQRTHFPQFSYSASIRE

LOK = molecular target: T8, LOK (Homo sapiens, UniProt O94804); test: KINOMEscan binding; settings: read-out: Percent Control
T8 construct: purchased Eurofins DiscoverX KINOMEscan

[2] = test system: Pparg and Cebpa genes in 3T3-L1 cells; test: qRT-PCR of adipogenic genes during differentiation; format: cell-based; settings: 3T3-L1 during differentiation; KD025 5 μM, CX-4945 10 μM, Y-27632 10 μM
Protocol: (§2) The preadipocyte 3T3-L1 cell line was kindly provided by Dr. Hyun-Sung Park (University of Seoul) and cultured in Dulbecco’s modified Eagle’s medium (DMEM, Sigma-Aldrich) supplied with 10% heat-inactivated newborn calf serum (Invitrogen, CA, USA), 100 units/mL penicillin, and 100 µg/mL streptomycin (Cellgro, VA, USA). The cells were maintained in an incubator at 37 °C and 5% CO2. To initiate differentiation, the cells were incubated for additional days after 100% confluence and then further incubated in a medium containing fetal bovine serum (FBS) and a differentiation cocktail (DMI, 1 μM dexamethasone, 0.5 mM 3-isobutyl-1-methylxanthine, and 5 μg/mL insulin) as previously described. In brief, at day 3, the culture medium was replaced with DMEM/10%FBS containing 5 µg/mL insulin. Then, growth medium was changed every 2 days.
Total RNA was extracted using easy-BLUE (iNtRON Biotechnology, Dajeon, Korea) in accordance with the manufacturer’s protocol. cDNA was synthesized from 2 µg of total RNA using TOPscript^TM Drymix Kit (Enzynomics, Dajeon, Korea). qRT-PCR was performed using TB Green ® Premix Ex Taq^TM II (Tli RNAse H Plus) (TaKaRa, Japan) with Applied Biosystems QuantStudio™ 1 Real-Time PCR System (Thermo Fisher Scientific, Waltham, MA, USA). Gene expression data were normalized based on the use of the same amount of total RNA samples. The relative fold change of gene expression was calculated using the ∆Ct method.

3T3-L1 cells = test: Adipocyte differentiation, Oil Red O staining; format: cell-based; settings: for quantity of lipid droplets (ORO staining): CX-4945 5 μM, KD025 3 μM
Protocol: as §2
Lipid droplets of cells were stained using ORO (Sigma-Aldrich, MA, USA). In brief, the cells were washed with phosphate buffered saline and incubated with 10% formalin for 5 min. The cells were then fixed with the same volume of fresh formalin for at least 1 h. Subsequently, the cells were washed with 60% isopropanol, air dried completely, and then stained with ORO working solution (1% ORO/isopropanol: distilled water = 3:2). The stained cells were washed with water four times. Cell images were taken by a microscope (Nikon Eclipse TS100-F, Japan). Then, 100% isopropanol was added and incubated for 10 min to quantify the intensity of ORO. The quantity of extracted dye was obtained by obtaining absorbance at 540 nm in the Synergy H1 hybrid reader (BioTek, VT, USA).

MAP3K15 = molecular target: T9, MAP3K15 (Homo sapiens, UniProt Q6ZN16); test: KINOMEscan binding; settings: read-out: Percent Control
T9 construct: purchased Eurofins DiscoverX KINOMEscan

TRKB = molecular target: T10, TRKB (Homo sapiens, UniProt Q16620); test: KINOMEscan binding; settings: read-out: Percent Control
T10 construct: purchased Eurofins DiscoverX KINOMEscan

MST1R = molecular target: T11, MST1R (Homo sapiens, UniProt Q04912); test: KINOMEscan binding; settings: read-out: Percent Control
T11 construct: purchased Eurofins DiscoverX KINOMEscan

SRPK1 = molecular target: T12, SRPK1 (Homo sapiens, UniProt Q96SB4); test: KINOMEscan binding; settings: read-out: Percent Control
T12 construct: purchased Eurofins DiscoverX KINOMEscan

RET(V804M) = molecular target: T13, RET(V804M) (Homo sapiens, UniProt P07949, V804M); test: KINOMEscan binding; settings: read-out: Percent Control
T13 construct: purchased Eurofins DiscoverX KINOMEscan

[3] = molecular target: T14, ABL1(Y253F)-phosphorylated (Homo sapiens, UniProt P00519, Y253F); test: KINOMEscan binding; settings: read-out: Percent Control
T14 construct: purchased Eurofins DiscoverX KINOMEscan

MRCKB = molecular target: T15, MRCKB (Homo sapiens, UniProt Q9Y5S2); test: KINOMEscan binding; settings: read-out: Percent Control
T15 construct: purchased Eurofins DiscoverX KINOMEscan

MRCKA = molecular target: T16, MRCKA (Homo sapiens, UniProt Q5VT25); test: KINOMEscan binding; settings: read-out: Percent Control
T16 construct: purchased Eurofins DiscoverX KINOMEscan
T16 sequence (Q5VT25 whole entry): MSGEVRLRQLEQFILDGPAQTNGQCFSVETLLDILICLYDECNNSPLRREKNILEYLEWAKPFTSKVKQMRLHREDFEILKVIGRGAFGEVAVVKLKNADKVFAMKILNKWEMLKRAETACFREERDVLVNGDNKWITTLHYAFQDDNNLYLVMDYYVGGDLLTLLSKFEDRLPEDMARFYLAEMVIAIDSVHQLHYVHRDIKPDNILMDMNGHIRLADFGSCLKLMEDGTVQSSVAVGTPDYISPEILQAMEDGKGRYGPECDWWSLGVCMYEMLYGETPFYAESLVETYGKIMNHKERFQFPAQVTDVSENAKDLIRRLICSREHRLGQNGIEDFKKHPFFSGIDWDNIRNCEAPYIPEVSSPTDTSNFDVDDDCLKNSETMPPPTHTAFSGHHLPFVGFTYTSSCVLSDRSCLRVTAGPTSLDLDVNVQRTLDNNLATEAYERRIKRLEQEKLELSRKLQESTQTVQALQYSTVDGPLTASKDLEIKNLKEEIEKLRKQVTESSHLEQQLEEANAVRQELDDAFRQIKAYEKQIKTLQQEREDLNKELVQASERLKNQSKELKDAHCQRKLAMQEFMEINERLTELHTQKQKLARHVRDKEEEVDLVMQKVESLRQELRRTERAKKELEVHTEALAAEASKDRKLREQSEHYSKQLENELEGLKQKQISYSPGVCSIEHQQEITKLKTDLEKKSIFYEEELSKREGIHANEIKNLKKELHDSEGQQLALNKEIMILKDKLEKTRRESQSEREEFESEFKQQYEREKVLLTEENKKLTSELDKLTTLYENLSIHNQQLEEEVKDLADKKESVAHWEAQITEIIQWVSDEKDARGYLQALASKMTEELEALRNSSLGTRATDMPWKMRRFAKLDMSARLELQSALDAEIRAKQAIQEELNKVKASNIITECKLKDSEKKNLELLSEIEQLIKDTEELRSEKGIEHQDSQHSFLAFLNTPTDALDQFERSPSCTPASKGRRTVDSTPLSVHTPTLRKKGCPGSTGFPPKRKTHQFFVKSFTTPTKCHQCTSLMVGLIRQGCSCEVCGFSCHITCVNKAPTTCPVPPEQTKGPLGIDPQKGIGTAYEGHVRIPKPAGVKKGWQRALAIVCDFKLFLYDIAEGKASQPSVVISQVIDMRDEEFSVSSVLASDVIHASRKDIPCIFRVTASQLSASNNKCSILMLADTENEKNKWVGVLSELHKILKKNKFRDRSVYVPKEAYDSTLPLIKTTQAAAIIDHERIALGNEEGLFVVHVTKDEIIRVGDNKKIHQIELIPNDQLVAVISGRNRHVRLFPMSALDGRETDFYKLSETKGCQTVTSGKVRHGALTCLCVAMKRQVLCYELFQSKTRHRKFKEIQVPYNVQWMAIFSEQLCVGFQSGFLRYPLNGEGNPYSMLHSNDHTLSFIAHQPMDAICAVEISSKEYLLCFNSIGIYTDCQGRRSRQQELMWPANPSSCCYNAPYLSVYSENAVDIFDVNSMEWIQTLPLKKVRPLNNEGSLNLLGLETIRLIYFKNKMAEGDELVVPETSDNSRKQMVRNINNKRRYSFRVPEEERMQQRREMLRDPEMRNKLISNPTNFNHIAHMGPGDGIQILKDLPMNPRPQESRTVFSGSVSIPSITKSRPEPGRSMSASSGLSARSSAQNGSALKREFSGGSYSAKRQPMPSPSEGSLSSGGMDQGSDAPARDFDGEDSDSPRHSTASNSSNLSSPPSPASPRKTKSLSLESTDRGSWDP

PLK3 = molecular target: T17, PLK3 (Homo sapiens, UniProt Q9H4B4); test: KINOMEscan binding; settings: read-out: Percent Control
T17 construct: purchased Eurofins DiscoverX KINOMEscan

YSK4 = molecular target: T18, YSK4 (Homo sapiens, UniProt Q56UN5); test: KINOMEscan binding; settings: read-out: Percent Control
T18 construct: purchased Eurofins DiscoverX KINOMEscan

PAK4 = molecular target: T19, PAK4 (Homo sapiens, UniProt O96013); test: KINOMEscan binding; settings: read-out: Percent Control
T19 construct: purchased Eurofins DiscoverX KINOMEscan
T19 sequence (O96013 whole entry): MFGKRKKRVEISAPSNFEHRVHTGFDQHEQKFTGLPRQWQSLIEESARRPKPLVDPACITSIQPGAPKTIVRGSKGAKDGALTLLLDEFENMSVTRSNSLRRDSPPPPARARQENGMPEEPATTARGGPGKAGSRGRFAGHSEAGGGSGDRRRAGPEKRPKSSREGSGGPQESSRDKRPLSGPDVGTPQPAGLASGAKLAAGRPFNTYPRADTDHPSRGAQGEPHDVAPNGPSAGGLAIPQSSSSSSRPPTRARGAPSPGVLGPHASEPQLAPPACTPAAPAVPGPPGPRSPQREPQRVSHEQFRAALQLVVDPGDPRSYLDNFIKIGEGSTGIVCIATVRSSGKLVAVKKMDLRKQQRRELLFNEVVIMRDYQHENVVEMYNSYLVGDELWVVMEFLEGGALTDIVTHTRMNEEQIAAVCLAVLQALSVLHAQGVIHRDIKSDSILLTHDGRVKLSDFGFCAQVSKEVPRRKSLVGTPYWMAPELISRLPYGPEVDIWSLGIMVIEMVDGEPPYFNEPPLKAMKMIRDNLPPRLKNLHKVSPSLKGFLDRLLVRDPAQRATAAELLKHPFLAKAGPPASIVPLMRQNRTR

PFCDPK1(P.falciparum) = molecular target: T20, PFCDPK1(P.falciparum) (Plasmodium falciparum, UniProt P62344); test: KINOMEscan binding; settings: read-out: Percent Control
T20 construct: purchased Eurofins DiscoverX KINOMEscan

KIT(L576P) = molecular target: T21, KIT(L576P) (Homo sapiens, UniProt P10721, L576P); test: KINOMEscan binding; settings: read-out: Percent Control
T21 construct: purchased Eurofins DiscoverX KINOMEscan
T21 sequence (P10721 26-976 L576P): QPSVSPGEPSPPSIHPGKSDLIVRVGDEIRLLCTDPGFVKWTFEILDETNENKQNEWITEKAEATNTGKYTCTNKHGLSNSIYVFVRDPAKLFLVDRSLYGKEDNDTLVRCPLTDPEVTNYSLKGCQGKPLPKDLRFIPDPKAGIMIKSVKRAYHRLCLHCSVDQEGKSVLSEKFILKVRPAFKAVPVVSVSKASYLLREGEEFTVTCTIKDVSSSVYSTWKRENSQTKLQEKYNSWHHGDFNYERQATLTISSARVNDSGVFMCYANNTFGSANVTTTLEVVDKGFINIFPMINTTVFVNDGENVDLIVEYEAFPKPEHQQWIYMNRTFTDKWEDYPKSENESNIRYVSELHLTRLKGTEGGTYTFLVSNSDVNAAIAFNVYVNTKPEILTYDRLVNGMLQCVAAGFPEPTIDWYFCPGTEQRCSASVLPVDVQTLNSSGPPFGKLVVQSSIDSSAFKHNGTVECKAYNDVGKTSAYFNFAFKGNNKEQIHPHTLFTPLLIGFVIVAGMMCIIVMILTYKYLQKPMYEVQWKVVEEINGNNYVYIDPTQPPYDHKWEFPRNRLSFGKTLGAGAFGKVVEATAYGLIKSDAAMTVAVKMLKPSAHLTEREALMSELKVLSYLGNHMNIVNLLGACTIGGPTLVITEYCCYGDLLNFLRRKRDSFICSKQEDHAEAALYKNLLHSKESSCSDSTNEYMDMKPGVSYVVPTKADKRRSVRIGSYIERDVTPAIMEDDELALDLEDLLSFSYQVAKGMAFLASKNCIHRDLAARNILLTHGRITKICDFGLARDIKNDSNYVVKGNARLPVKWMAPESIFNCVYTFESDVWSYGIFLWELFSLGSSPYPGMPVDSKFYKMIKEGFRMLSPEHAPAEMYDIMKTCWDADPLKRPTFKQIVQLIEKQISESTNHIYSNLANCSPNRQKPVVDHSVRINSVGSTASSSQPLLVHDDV

STK16 = molecular target: T22, STK16 (Homo sapiens, UniProt O75716); test: KINOMEscan binding; settings: read-out: Percent Control
T22 construct: purchased Eurofins DiscoverX KINOMEscan
T22 sequence (O75716 whole entry): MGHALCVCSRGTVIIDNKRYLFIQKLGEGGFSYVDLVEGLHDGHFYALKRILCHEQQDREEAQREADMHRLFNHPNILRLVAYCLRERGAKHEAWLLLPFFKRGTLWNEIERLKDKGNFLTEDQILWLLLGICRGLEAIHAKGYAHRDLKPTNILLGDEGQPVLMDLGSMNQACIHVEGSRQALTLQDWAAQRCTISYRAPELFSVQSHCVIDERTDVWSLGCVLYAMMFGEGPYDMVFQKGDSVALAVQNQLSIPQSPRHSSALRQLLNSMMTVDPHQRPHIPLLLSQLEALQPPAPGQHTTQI

ALK(L1196M) = molecular target: T23, ALK(L1196M) (Homo sapiens, UniProt Q9UM73, L1196M); test: KINOMEscan binding; settings: read-out: Percent Control
T23 construct: purchased Eurofins DiscoverX KINOMEscan

KIT(D816H) = molecular target: T24, KIT(D816H) (Homo sapiens, UniProt P10721, D816H); test: KINOMEscan binding; settings: read-out: Percent Control
T24 construct: purchased Eurofins DiscoverX KINOMEscan
T24 sequence (P10721 26-976 D816H): as the sequence (P10721 26-976 L576P) above, with P551L, D791H counted along it

TAOK3 = molecular target: T25, TAOK3 (Homo sapiens, UniProt Q9H2K8); test: KINOMEscan binding; settings: read-out: Percent Control
T25 construct: purchased Eurofins DiscoverX KINOMEscan

T1 sequence (O75582 388-802 limits assumed): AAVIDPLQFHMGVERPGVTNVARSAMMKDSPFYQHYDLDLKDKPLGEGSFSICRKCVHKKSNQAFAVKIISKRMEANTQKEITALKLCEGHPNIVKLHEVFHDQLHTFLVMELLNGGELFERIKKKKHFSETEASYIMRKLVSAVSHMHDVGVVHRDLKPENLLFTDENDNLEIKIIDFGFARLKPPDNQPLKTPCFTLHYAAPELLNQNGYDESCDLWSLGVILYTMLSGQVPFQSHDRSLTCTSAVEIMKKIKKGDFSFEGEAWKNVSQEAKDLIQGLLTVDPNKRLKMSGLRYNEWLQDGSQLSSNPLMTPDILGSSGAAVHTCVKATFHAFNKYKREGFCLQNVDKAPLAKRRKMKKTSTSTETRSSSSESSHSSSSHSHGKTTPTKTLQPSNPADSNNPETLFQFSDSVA

Which results are given for `CC(C)NC(=O)COc1cccc(-c2nc(Nc3ccc4[nH]ncc4c3)c3ccccc3n2)c1` [KD025, 2-(3-(4-((1H-indazol-5-yl)amino)quinazolin-2-yl)phenoxy)-N-isopropylacetamide]?
remaining binding at 10 µM [1]: 86%; remaining binding at 10 µM (PRKX): 81%; remaining binding at 10 µM (FLT3(R834Q)): 69%; remaining binding at 10 µM (EPHA7): 100%; remaining binding at 10 µM (PRP4): 15%; remaining binding at 10 µM (CDC2L5): 100%; remaining binding at 10 µM (AKT2): 90%; remaining binding at 10 µM (LOK): 9.8%; expression of Pparg and Cebpa genes [2]: suppressed; lipid accumulation / adipocyte differentiation (ORO staining) (3T3-L1 cells; 3T3-L1, treated during differentiation, stained at day 8): suppressed the generation of lipid droplets; also recorded: reduces fat accumulation; quantity of lipid droplets (ORO staining) (3T3-L1 cells; 3T3-L1, treated during the early (days 0–1) or late (days 5–8) stage): ineffective; also recorded: lesser effect; quantity of lipid droplets (ORO staining) (3T3-L1 cells; 3T3-L1, treated during the intermediate stage (days 1–3)): acted specifically in the middle stage; also recorded: significantly reduced; remaining binding at 10 µM (MAP3K15): 82%; remaining binding at 10 µM (TRKB): 98%; remaining binding at 10 µM (MST1R): 71%; remaining binding at 10 µM (SRPK1): 7%; remaining binding at 10 µM (RET(V804M)): 59%; remaining binding at 10 µM [3]: 49%; remaining binding at 10 µM (MRCKB): 1%; remaining binding at 10 µM (MRCKA): 57%; remaining binding at 10 µM (PLK3): 72%; remaining binding at 10 µM (YSK4): 66%; remaining binding at 10 µM (PAK4): 100%; remaining binding at 10 µM (PFCDPK1(P.falciparum)): 66%; remaining binding at 10 µM (KIT(L576P)): 74%; remaining binding at 10 µM (STK16): 62%; remaining binding at 10 µM (ALK(L1196M)): 95%; remaining binding at 10 µM (KIT(D816H)): 81%; remaining binding at 10 µM (TAOK3): 89%
